In patent US7282608B2, “Inhibitors of histone deacetylase” (Methylgene, Inc., priority 2002, dated 2007):
Like-named read-outs stand apart in the source and are kept apart here.

How the values were obtained:
Human HDAC-1 = Human HDAC-1 (Homo sapiens, UniProt Q13547); assay: Human HDAC-1 Assay 2: Boc-Lys(Ac)-AMC fluorescence assay; format: biochemical; conditions: Assay 2, bracketed [ ] data; Boc-Lys(Ac)-AMC substrate
Method: In the alternative, the following protocol was used to assay the compounds of the invention. In the assay, the buffer used was 25 mM HEPES, pH 8.0, 137 mM NaCl, 2.7 mM KCl, 1 mM MgCl2 and the subtrate was Boc-Lys(Ac)-AMC in a 50 mM stock solution in DMSO. The enzyme stock solution was 4.08 μg/mL in buffer.
The compounds were pre-incubated (2 μl in DMSO diluted to 13 μl in buffer for transfer to assay plate) with enzyme (20 μl of 4.08 μg/ml) for 10 minutes at room temperature (35 μl pre-incubation volume). The mixture was pre-incubated for 5 minutes at room temperature. The reaction was started by bringing the temperature to 37° C. and adding […] substrate. Total reaction volume was 50 μl. The reaction was stopped after 20 minutes by addition of 50 μl developer, prepared as directed by Biomol (Fluor-de-Lys developer, Cat. # KI-105). A plate was incubated in the dark for 10 minutes at room temperature before reading (λEX=360 nm, λEx=470 nm, Cutoff filter at 435 nm).
IC50 values for representative compounds assayed using this procedure are presented in the third column of Table 9 (bracketed [ ] data).

HCT116 cells = assay: MTT assay; format: cell-based; conditions: Homo sapiens, HCT-116, 72 hours
Method: HCT116 cells (2000/well) were plated into 96-well tissue culture plates one day before compound treatment. Compounds at various concentrations were added to the cells. The cells were incubated for 72 hours at 37° C. in 5% CO2 incubator. MTT (3-[4,5-dimethylthiazol-2-yl]-2,5 diphenyl tetrazolium bromide, Sigma) was added at a final concentration of 0.5 mg/ml and incubated with the cells for 4 hours before one volume of solubilization buffer (50% N,N-dimethylformamide, 20% SDS, pH 4.7) was added onto the cultured cells. After overnight incubation, solubilized dye was quantified by colorimetric reading at […] using a reference at […] using an MR700 plate reader (Dynatech Laboratories Inc.). OD values were converted to cell numbers according to a standard growth curve of the relevant cell line. The concentration which reduces cell numbers to 50% of that of solvent treated cells is determined as MTT IC50. IC50 values for representative compounds are presented in the fourth column of Tables 7–10.

[1] = molecular target: T1, cloned recombinant human HDAC-1 (Homo sapiens, UniProt Q13547); assay: Human HDAC-1 Assay 1: [3H]-acetylated histone deacetylase assay; format: biochemical; conditions: Assay 1, unbracketed data; [3H]-acetylated histone substrate, 10 min at 37° C.
T1 construct: made in house; host or cells: Baculovirus insect cell expression system
Method: HDAC inhibitors were screened against a cloned recombinant human HDAC-1 enzyme expressed and purified from a Baculovirus insect cell expression system. For deacetylase assays, 20,000 cpm of the [^3H]-metabolically labeled acetylated histone substrate (M. Yoshida et al., J. Biol. Chem. 265(28): 17174–17179 (1990)) was incubated with 30 μg of the cloned recombinant hHDAC-1 for 10 minutes at 37° C. The reaction was stopped by adding acetic acid (0.04 M, final concentration) and HCl (250 mM, final concentration). […] For inhibition studies, the enzyme was preincubated with compounds at 4° C. for 30 minutes prior to initiation of the enzymatic assay. IC50 values for HDAC enzyme inhibitors were determined by performing dose response curves with individual compounds and determining the concentration of inhibitor producing fifty percent of the maximal inhibition. IC50 values for representative compounds assayed using this procedure are presented in the third column of Tables 7–10 (excepting bracketed data).

[2] = tested on: acetylated histone H-4 in T24 human bladder cancer cells; assay: Histone H4 acetylation in whole cells by immunoblots; format: cell-based; conditions: 16 h, read-out: H4 Ac (T24) EC50
Method: T24 human bladder cancer cells growing in culture were incubated with HDAC inhibitors for 16 h. Histones were extracted from the cells after the culture period as described by M. Yoshida et al. (J. Biol. Chem. 265(28): 17174–17179 (1990)). […] of total histone protein was loaded onto SDS/PAGE and transferred to nitrocellulose membranes. Membranes were probed with polyclonal antibodies specific for acetylated histone H-4 (Upstate Biotech Inc.), followed by horse radish peroxidase conjugated secondary antibodies (Sigma). Enhanced Chemiluminescence (ECL) (Amersham) detection was performed using Kodak films (Eastman Kodak). Acetylated H-4 signal was quantified by densitometry. Representative data are presented in the fifth column of Table 7–10. Data are presented as the concentration effective for […] the acetylated H-4 signal by 50% (EC50).

[3] = tested on: HCT116 human colorectal carcinoma cells; assay: Antineoplastic effects on human tumor xenografts in vivo; design: species or system CD1 nude mice; conditions: HCT116 xenograft, daily injection i.v., s.c. or i.p., starting dose 10 mg/kg
Method: Eight to ten week old female CD1 nude mice (Taconic Labs, Great Barrington, N.Y.) were injected subcutaneously in the flank area with 2×10^6 preconditioned HCT116 human colorectal carcinoma cells. Preconditioning of these cells was done by a minimum of three consecutive tumor transplantations in the same strain of nude mice. Subsequently, tumor fragments of approximately 30 mgs were excised and implanted subcutaneously in mice, in the left flank area, under Forene anesthesia (Abbott Labs, Geneva, Switzerland). When the tumors reached a mean volume of 100 mm^3, the mice were treated intravenously, subcutaneously, or intraperitoneally by daily injection, with a solution of the histone deacetylase inhibitor in an appropriate vehicle, such as PBS, DMSO/water, or Tween 80/water, at a starting dose of 10 mg/kg. The optimal dose of the HDAC inhibitor was established by dose response experiments according to standard protocols. Tumor volume was calculated every second day post infusion according to standard methods (e.g., Meyer et al., Int. J. Cancer 43: 851–856 (1989)).

T1 sequence (Q13547 whole entry): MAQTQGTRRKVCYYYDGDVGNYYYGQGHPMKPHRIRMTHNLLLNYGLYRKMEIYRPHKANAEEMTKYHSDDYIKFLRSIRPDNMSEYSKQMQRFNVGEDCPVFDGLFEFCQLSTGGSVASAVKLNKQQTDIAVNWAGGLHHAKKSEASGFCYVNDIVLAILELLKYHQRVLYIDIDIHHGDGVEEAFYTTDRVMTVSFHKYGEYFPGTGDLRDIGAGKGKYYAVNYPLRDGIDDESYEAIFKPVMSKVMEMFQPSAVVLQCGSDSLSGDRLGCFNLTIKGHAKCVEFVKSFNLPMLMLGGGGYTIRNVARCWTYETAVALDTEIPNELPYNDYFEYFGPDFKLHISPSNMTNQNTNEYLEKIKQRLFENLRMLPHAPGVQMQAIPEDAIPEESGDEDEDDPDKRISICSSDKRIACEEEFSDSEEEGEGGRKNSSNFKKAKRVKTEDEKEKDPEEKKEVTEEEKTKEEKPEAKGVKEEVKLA
Sequence of Human HDAC-1 (Q13547 whole entry): as above

SMILES | IC50 (Human HDAC-1) [nM] | IC50 (HCT116 cells) [nM] | IC50 [1] [nM] | EC50 ([2]; immunoblot densitometry) [nM] | reduction in tumor weight and volume relative to vehicle controls [3] | EC50 ([2]; code 9999 of the footnote) [nM]
CN(C/C=C/c1ccc(C(=O)Nc2ccccc2N)cc1)Cc1ccccc1 [XXXd, N-(2-Amino-phenyl)-4-[3-(benzyl-methyl-amino)-propenyl]-benzamide] | 170 | 2000 | – | – | – | –
COc1ccccc1C(=O)/C=C/c1ccc(C(=O)Nc2ccccc2N)cc1 [XXIVe, N-(2-Amino-phenyl)-4-[3-(2-methoxy-phenyl)-3-oxo-propenyl]-benzamide] | – | 800 | 3000 | 5000 | – | –
Nc1ccccc1NC(=O)c1ccc(/C=C/CN2Cc3ccccc3C2)cc1 [XXXa, N-(2-Amino-phenyl)-4-[3-(1,3-dihydro-isoindol-2-yl)-propenyl]-benzamide] | 260 | 1000 | – | 4000 | – | –
Nc1ccccc1NC(=O)c1ccc(/C=C/C(=O)NCCOc2ccccc2)cc1 [Vd, N-(2-Amino-phenyl)-4-[2-(2-phenoxy-ethylcarbamoyl)-vinyl]-benzamide] | – | 400 | 1000 | 1000 | – | –
COc1ccc(NC/C=C/c2ccc(C(=O)Nc3ccccc3N)cc2)cc1OC1CCCC1 [XVa, N-(2-Amino-phenyl)-4-[3-(3-cyclopentyloxy-4-methoxy-phenylamino)-propenyl]-benzamide] | – | 1000 | 2000 | 1000 | – | –
Nc1ccccc1NC(=O)c1ccc(/C=C/C(=O)c2ccccc2)cc1 [XXIVa, N-(2-Amino-phenyl)-4-(3-oxo-3-phenyl-propenyl)-benzamide] | – | 400 | 4000 | 3000 | – | –
COc1ccc(NC/C=C/c2ccc(C(=O)Nc3ccccc3N)cc2)cc1OC [XVi, N-(2-Amino-phenyl)-4-[3-(3,4-dimethoxy-phenylamino)-propenyl]-benzamide] | – | 1000 | 1000 | 4000 | – | –
Nc1ccccc1NC(=O)c1ccc(/C=C/CNc2nccc(-c3cccnc3)n2)cc1 [XVj, N-(2-Amino-phenyl)-4-[3-(4-pyridin-3-yl-pyrimidin-2-ylamino)-propenyl]-benzamide] | – | 200 | 2000 | < 1000 | significant reduction in tumor weight and volume | –
Nc1ccccc1NC(=O)c1ccc(/C=C/C(=O)c2ccc(N3CCOCC3)cc2)cc1 [XXIVf, N-(2-Amino-phenyl)-4-[3-(4-morpholin-4-yl-phenyl)-3-oxo-propenyl]-benzamide] | – | 300 | 10000 | 3000 | – | –
Nc1ccccc1NC(=O)c1ccc(/C=C/C(=O)NC2Cc3ccccc3C2)cc1 [Vh, N-(2-Amino-phenyl)-4-[2-(indan-2-ylcarbamoyl)-vinyl]-benzamide] | – | 1000 | 3000 | 10000 | – | –
Nc1ccccc1NC(=O)c1ccc(/C=C/CNC2Cc3ccccc3C2)cc1 [XXXe, N-(2-Amino-phenyl)-4-[3-(indan-2-ylamino)-propenyl]-benzamide] | 790 | 2000 | – | – | – | –
Nc1ccccc1NC(=O)c1ccc(C(=O)/C=C/c2c(Cl)cccc2Cl)cc1 [Ic, N-(2-Amino-phenyl)-4-[3-(2,6-dichloro-phenyl)-acryloyl]benzamide] | – | 400 | 3000 | – | – | > 25000
Nc1ccccc1NC(=O)c1ccc(C(=O)/C=C/c2cc(F)ccc2F)cc1 [Ii, N-(2-Amino-phenyl)-4-[3-(2,5-difluoro-phenyl)-acryloyl]-benzamide] | – | 1000 | 3000 | 3000 | – | –
Nc1ccccc1NC(=O)c1ccc(C(=O)/C=C/c2ccc(OC(F)F)c(OC3CC3)c2)cc1 [Ig, N-(2-Amino-phenyl)-4-[3-(3-cyclopropoxy-4-difluoromethoxy-phenyl)-acryloyl]-benzamide] | – | 700 | 3000 | – | – | > 25000
Nc1ccccc1NC(=O)c1ccc(/C=C/C(=O)NCCc2ccccn2)cc1 [Vi, N-(2-Amino-phenyl)-4-[2-(2-pyridin-2-yl-ethylcarbamoyl)-vinyl]-benzamide] | – | 1000 | 4000 | 3000 | – | –
COc1cc(/C=C/C(=O)c2ccc(C(=O)Nc3ccccc3N)cc2)cc(OC)c1OC [Id, N-(2-Amino-phenyl)-4-[3-(3,4,5-trimethoxy-phenyl)-acryloyl]-benzamide] | – | 600 | 3000 | 3000 | – | –
CSc1nc(NC/C=C/c2ccc(C(=O)Nc3ccccc3N)cc2)n[nH]1 [XVe, N-(2-Amino-phenyl)-4-[3-(5-methylsulfanyl-1H-[1,2,4]triazol-3-ylamino)-propenyl]-benzamide] | – | 500 | 2000 | 1000 | – | –
CC(=O)c1cc2c(cc1NC/C=C/c1ccc(C(=O)Nc3ccccc3N)cc1)OCO2 [XVf] | – | 1000 | 3000 | 2000 | – | –
Nc1ccccc1NC(=O)c1ccc(/C=C/CN2CCN(c3ccccn3)CC2)cc1 [XXXc, N-(2-Amino-phenyl)-4-[3-(4-pyridin-2-yl-piperazin-1-yl)-propenyl]-benzamide] | 820 | 500 | – | 2000 | – | –
